A short description of series [1]: plasma enterolactone after 7-hydroxymatairesinol capsules in human subjects. It counts as in vivo. The settings on record: healthy male volunteers, capsules 315 mg/day (3 x 105 mg), 29 days, FIG. 2. The method, then: The data for experimental days 1 and 29 is shown. On the x-axis, the time (hrs) after the first 105 mg dose is shown. The arrows denote the administration of the three 105 mg HMRlignan™ (hydroxymatairesinol) doses during the test days 1 and 29. N=6.
In brief, healthy male volunteers ingested capsule preparation of 7-hydroxymatairesinol, at total daily dose of 315 mg, divided in three 105 mg portion for morning, afternoon and evening dose. The subjects ingested the product continuously for 29 days. […] The levels were measured with a high-performance liquid chromatography coupled with tandem mass spectrometer system (Applied Biosystems Inc.).

The conditions of series [2]: disclosed in WO 00/59946; cited from earlier work.

This is an account of results in patent US20080057140A1, “Use of a Lignan for the Manufacture of a Composition for Preventing or Alleviating of Symptoms Relating to Estrogen Deficiency” (priority 2005, published 2008).

Turning to `COc1cc(C[C@H]2C(=O)OC[C@@H]2[C@H](O)c2ccc(O)c(OC)c2)ccc1O` [7-hydroxymatairesinol], the circulating enterolactone concentration result in series [1] was “sustained increase”. The “conversion to enterolactone in vivo” value in series [2] was “efficiently converted to enterolactone”.
